pIC50: −log10 of the molar value. “Also recorded” adds a separate entry of the source.
Assays:
[1] = system: primary NK cells isolated from the peripheral blood of healthy individuals; assay: Primary NK cell activation (CD107 flow cytometry), peripheral blood PBMCs from healthy donors; format: cell-based, Human; conditions: 1, 10, 100 nM, 72 h, K562 targets 5:1, FIG. 6
Experimental: (§1) CD107 is expressed on the surface of NK cells released by the activator. Therefore, the activation of NK cells can be reflected by detecting the content of CD107 expressed by cell membrane.
(§2) 6.1 Collect peripheral blood from normal individuals and pleural effusion from lung cancer patients using sterile anticoagulant tubes, and dilute with an equal volume of sterile PBS. Take a 50 ml centrifuge tube and absorb a certain volume of lymphocyte separation solution (Solarbio Science & Technology Co., Ltd.). Slowly add diluted peripheral blood and pleural effusion in a volume ratio of 4:3. Centrifuge at 400 g at room temperature for 30 min (Adjust the lifting and deceleration speed of the centrifuge to rise 1 or down 1). 6.2 Carefully absorb the white lymphocyte layer in the middle and place it in PBS (at least three times the volume of the absorbed cells). Overturn and blending, and wash the cells. Centrifuge at 100 g at room temperature for 10 min. Discard the supernatant, resuspend the cell pellet in 10 ml PBS, and gently mix. Wash off residual Ficoll, then centrifuge again at 100 g for 10 min. Discard the supernatant, resuspend the cell pellet in RPMI-1640 complete medium, and continue culture for 3 days with RPMI-1640 complete medium containing 10 ng/ml IL-2 to stimulate primary NK cell expansion and activation. […] The detection results were analyzed using FlowJo software.

NK92 cells [2] = assay: Killing function of NK92 cells against tumor cells after compound treatment (LDH assay, initial screening); format: cell-based, Human; conditions: for cytotoxicity at 0.1 µM: Homo sapiens, NK92 treated at 100 nM for 72 h, effector-to-target ratio 5:1, 5 h co-culture, LDH release, read-out: tumor killing rate by NK activation
Experimental: (§3) Seed the NK92 cells obtained from 1.3 into a 24-well cell culture plate (referred to as a 24-well plate) at a concentration of 3×10^5 cells/well, with 4 wells designated as blank or drug-treated. For the drug-treated wells, set the initial screening concentration to 100 nM. Add 900 μL of cell suspension and 100 μL of drug to each well. For the blank wells, add 100 μL of double-distilled water. Incubate the 24-well plate in a 37° C., 5% CO2 incubator for 72 h. Replace the fresh culture medium and add drugs every 24 h during the incubation.
(§4) Seed various types of tumor cells in logarithmic phase into a 96-well cell culture plate at a concentration of 5×10^3 cells/well. Set up 3 replicate wells for each concentration and include wells for target cell spontaneous release and target cell maximum release. Incubate the 96-well plate overnight in a 37° C., 5% CO2 incubator.
Centrifuge and count the NK92 cells from 2.1 in the 24-well plate cultured for 72 h. Add the cells to the overnight-cultured tumor target cells according to the effector-to-target ratio of 5:1 (excluding wells for target cell spontaneous release and maximum release). Also, set up 3 effector cell control wells. Add 200 μL of cell suspension to each well, then centrifuge at 300 g, 25° C. for 5 min to allow sufficient contact between effector cells and target cells. Continue to place the 96 well plate in a 37° C., 5% CO2 incubator and co-cultivate the NK92 and target cells for 5 h.
Lactate dehydrogenase (LDH) assay kit (BioGend Biotech Co., Ltd.) is used to detect the killing effect of effector cells on target cells. Add LDH release reagent to the wells with target cell maximum release and incubate for 1 h. After 1 h, centrifuge at 500 g, 25° C. for 5 min. Transfer 120 μL of supernatant from each well to a new 96-well plate, add the prepared LDH detection solution (60 μL/well: 20 μL lactate solution, 20 μL 1×INT working solution, and 20 μL enzyme solution) in the dark, and mix well by pipetting. Incubate at room temperature in the dark for 20 min (wrapped in aluminum foil and shook slowly on a shaker). Measure the absorbance at 490 nm using a microplate reader and the measured absorbance value of each well should subtract the absorbance value of the background blank control well.
Cytotoxicity (%)=[(Experimental group−Effector cell control−Target cell spontaneous release)/(Target cell maximum release−Target cell spontaneous release)]×100.

cancer cell lines = assay: In vitro assays of cancer cell lines; format: cell-based; conditions: direct activity on cancer cell lines; read-out: IC50 in all in vitro assays of cancer cell lines
Source text: In prior research (Sun C.; Ge X.; Mudassir S.; Zhou L.; Yu G.; Che Q.; Zhang G.; Peng J.; Gu Q.; Zhu T. New glutamine-containing azaphilone alkaloids from deep-sea-derived fungus Chaetomium globosum HDN151398. Mar. Drugs 2019, 17, 253.), the inventors discovered compound 1778.

NK92 cells [3] = assay: Killing ability of NK cell against tumor cells after treatment with 1778 (1, 10, 100 nM); format: cell-based, Human
Experimental: as §3, §4
Centrifuge and count the NK92 cells from 2.1 in the 24-well plate cultured for 72 h. […]
Lactate dehydrogenase (LDH) assay kit (BioGend Biotech Co., Ltd.) is used to detect the killing effect of effector cells on target cells. […] Measure the absorbance at 490 nm using a microplate reader and the measured absorbance value of each well should subtract the absorbance value of the background blank control well. […]

NK92 cells [4] = assay: NK cell activation factor release (ELISA) after co-culture with NCI-H1975; format: cell-based, Human
Experimental: NK cells release granzyme B and perforin to kill tumor cells upon activation, while release IFN-γ to regulate the mechanism of antitumor immunity.
5.1 Pre-treatment of NK92 Cells with Compound 1778: Seed NK92 cells into a 24-well plate and treat with drug as described in section 3.1.
Seed logarithmic phase NCI-H1975 cells into 96-well plates at a concentration of 1×10^4 cells/well. Set up 3 replicates for each concentration and control wells for target cell. Incubate the 96-well plate overnight in a 37° C., 5% CO2 incubator.
According to the effector-to-target ratio of 5:1, add NK92 cells to NCI-H1975, co-cultivate for over 6 h and centrifuge (500 g, 25° C.). Then collect supernatant (use within 24 h). Use ELISA kits (BD Biosciences, USA) to detect the release of 3 activating cytokines granzyme B (FIG. 3), perforin (FIG. 4), and IFN-γ (FIG. 5).

NK92 cells [5] = assay: NK cell proliferation rate using CCK-8; format: cell-based, Human; conditions: 1-10000 nM, 72 h, FIG. 1
Experimental: 3. Determination of NK Cell Proliferation Rate Using CCK-8 after Treatment with 1778 3.1 Preparation of Compound Concentration Gradient: Dilute the azaphilone compound 1778 with double-distilled water to set up 5 concentrations, with final concentrations of 1, 10, 100, 1000, and 10000 nM in the wells.
Seed NK92 cells obtained from 1.3 into 96-well cell culture plate (referred to as a 96-well plate) at a concentration of 1×10^4 cells/well, […]. Set up 5 replicates for each compound concentration (also need to set a blank group, that is, double-distilled water replaces the compound), and seal wells with PBS. Incubate in a 37° C., 5% CO2 incubator for 72 h.
Remove the cell culture plates from 2.2 and add 10 μL of CCK-8 solution (Shanghai Yisheng Biotechnology Co., Ltd.) to each well, avoiding bubbles. After adding CCK-8 solution, incubate the 96-well cell culture plates in a 37° C., 5% CO2 incubator for 2.5 h. Measure the absorbance at 450 nm using a microplate reader to compare the proliferation level of NK92 cells.

B16F10 melanoma cells = assay: Melanoma lung metastasis model in C57BL/6 mice; format: in vivo; conditions: 25 mg/kg daily intraperitoneal, 14 days; B16F10 via tail vein; FIG. 8
Experimental: To investigate whether 1778 works in vivo, we used a melanoma lung metastasis model.
Mouse B16F10 melanoma cells were intravenously injected into mice, and then 1778 was administered for efficacy evaluation. B116F10 cells are highly metastatic and lack MHC class-I expression, and it has been previously reported that the metastasis of B116F10 cells in vivo is mainly controlled by NK cells.
7.1 Inject 200,000 B116F10 cells via the tail vein into each C57BL/6J mouse. 7.2 A daily intraperitoneal injection of 1778 at a dose of 25 mg/kg (diluted with PBS solution to a final volume of 200 μL). The control group was injected intraperitoneally with an equivalent volume of PBS (with the same concentration of solvent DMSO). Weigh the mice every other day to monitor the impact on body weight. After 14 days of drug administration, euthanize the mice, collect lung tissue, and fix it in tissue fixative. Count and statistically analyze the number of melanoma colonies in the lungs.

[6] = system: primary NK cells from the pleural fluid of lung cancer patients; assay: Primary NK cell activation (CD107 flow cytometry), pleural effusion from lung cancer patients; format: cell-based, Human; conditions: 1, 10, 100 nM, 72 h, K562 targets 5:1, FIG. 7
Experimental: as §1, §2

SMILES	cytotoxicity at 0.1 µM (NK92 cells [2]) [%]	further results
C/C=C(\C)C(=O)C1=C2C3=CN([C@@H](CCC(=O)O)C(=O)O)C(/C=C/[C@@H](C)CC)=CC3=C(Cl)C(=O)[C@@]2(C)OC1=O [Compound 1778]	75.2	expression of CD107 (degranulation) in primary NK cells [1]: significantly promotes the degranulation; also recorded: significant increase; activation effect on NK92 cells (NK92 cells [2]; summary in words of the 100 nM screening table): very strong activation effect; pIC50 (cancer cell lines): < 4.30; ability of NK92 cells to kill various types of tumor cells (NK92 cells [3]; 1, 10, 100 nM, FIG. 2): significantly enhances; also recorded: significantly promotes the killing activity; concentration at which NK cells are activated (NK92 cells [3]; concentrations as low as): 1 to 100 nM; release of granzyme B by NK-92 cells (NK92 cells [4]; co-culture with NCI-H1975, 5:1, FIG. 3): promotes the releases; also recorded: significantly promotes the release; release of perforin by NK-92 cells (NK92 cells [4]; co-culture with NCI-H1975, 5:1, FIG. 4): promotes the releases; also recorded: significantly promotes the release; release of IFN-γ by NK-92 cells (NK92 cells [4]; co-culture with NCI-H1975, 5:1, FIG. 5): significantly promotes the release; also recorded: promotes the releases; proliferation of NK92 cells (NK92 cells [5]): weak proliferative effect; also recorded: promotes the proliferation; number of lung metastases (melanoma colonies in the lungs) (B16F10 melanoma cells): significant inhibitory effect; also recorded: significantly reduced; expression of CD107 (degranulation) in primary NK cells [6]: significantly promotes the degranulation; also recorded: significant increase
C/C=C(\C)C(=O)C1=C2C3=CN([C@@H](CCC(=O)OC)C(=O)OC)C(/C=C/[C@@H](C)CC)=CC3=C(Cl)C(=O)[C@@]2(C)OC1=O [Compound 1779]	22	
CC[C@H](C)/C=C(C)/C=C/C1=CC2=C(Cl)C(=O)[C@](C)(OC(C)=O)C(=O)C2=CN1CC(=O)O [Compound 1996]	6.12	
CC[C@H](C)/C=C(C)/C=C/C1=CC2=C(Cl)C(=O)[C@](C)(OC(C)=O)C(=O)C2=CN1[C@@H](Cc1ccc(O)cc1)C(=O)O [Compound 1997]	29.5	
CC[C@H](C)/C=C(C)/C=C/C1=CC2=C(Cl)C(=O)[C@](C)(OC(C)=O)C(=O)C2=CN1[C@@H](C)C(=O)O [Compound 1998]	78.4	
CC[C@H](C)/C=C(C)/C=C/C1=CC2=C(Cl)C(=O)[C@](C)(OC(C)=O)C(=O)C2=CN1[C@@H](CO)C(=O)O [Compound 1999]	58.3	
CC[C@H](C)/C=C(C)/C=C/C1=CC2=C(Cl)C(=O)[C@](C)(OC(C)=O)C(=O)C2=CN1[C@@H](Cc1ccccc1)C(=O)O [Compound 2000]	65.2	
CC[C@H](C)/C=C(C)/C=C/C1=CC2=C(Cl)C(=O)[C@](C)(OC(C)=O)C(=O)C2=CN1[C@@H](CC(C)C)C(=O)O [Compound 2001]	18.7	
CC[C@H](C)/C=C(C)/C=C/C1=CC2=C(Cl)C(=O)[C@](C)(OC(C)=O)C(=O)C2=CO1 [Compound 2307]	38.3	
CC[C@H](C)/C=C(C)/C=C/C1=CC2=C(Cl)C(=O)[C@](C)(OC(C)=O)C(=O)C2=CN1CCO [Compound 2308]	8.11	
CC[C@H](C)/C=C(C)/C=C/C1=CC2=C(Cl)C(=O)[C@](C)(OC(C)=O)C(=O)C2=CN1[C@H](C(=O)O)[C@@H](C)O [Compound 2309]	28.3	
C/C=C(\C)C(=O)C1=C2C3=CN([C@@H](Cc4c[nH]c5ccccc45)C(=O)O)C(/C=C/[C@@H](C)CC)=CC3=C(Cl)C(=O)[C@@]2(C)OC1=O [Compound 2318]	35.9	
C/C=C(\C)C(=O)C1=C2C3=CN([C@@H](Cc4c[nH]cn4)C(=O)O)C(/C=C/[C@@H](C)CC)=CC3=C(Cl)C(=O)[C@@]2(C)OC1=O [Compound 2320]	22.2	

From patent US20250177375A1, “AZAPHILONE COMPOUND AND USE THEREOF IN PREPARATION OF ANTI-TUMOR DRUGS” (OCEAN UNIVERSITY OF CHINA, priority 2022, published 2025)
